# Literature values as cited in US11957723B2, “Methods and uses of microbiome compositions, components, or metabolites for treating neurodegenerative diseases” (MarvelBiome, Inc., priority 2021, dated 2024).
# System: ALS patients
compound,measurement,setting,value
Nc1nc2ccc(OC(F)(F)F)cc2s1 [Riluzole],life span expansion,ALS patients in the early stages,about a three-month life span expansion
same,therapeutic benefit,ALS patients in the late stages,no therapeutic benefit
